From patent US20030152986A1, “Method for sorting antifungal molecules acting on the glucanosyltransferase activity” (Institut Pasteur, priority 1996, published 2003)

Tests used:
[1] = biological target: T1, 49 kDa β-(1-3)-glucanosyltransferase (BGT2) (Aspergillus fumigatus, UniProt B0XT72); experiment: Transferase assay with reduced (^3H-marked) laminarioligosaccharides, products separated by HPAEC; assay type: biochemical; details: for activity of the transferase towards the substance as substrate/donor: incubation with 49 kDa transferase, HPAEC analysis of products
T1 construct: from tissue; host or cells: Aspergillus fumigatus CBS 144-89 mycelium, cell wall autolysate; four ion-exchange steps and one gel filtration
Description: The enzyme fractions were assayed for transferase activity by incubation in 50 mM Na citrate, pH 5.0 at 37° C. (10 μl volume per assay) with a laminarioligosaccharide reduced with borohydride (8 mM final) of at least size G10. Samples (3 μl) were taken at different times, 50 mM NaOH cooled in ice (47 μl) was added to terminate the reaction, and the mixture was frozen until analyzed by high-performance anion-exchange chromatography (HPAEC). Since the peak intensities detected by Pulsed Electrochemical Detector (PED) varied from day to day, the transferase activity was quantified by use of reduced laminarioligosaccharides marked with ^3H as substrates and measurement of the appearance of the marking in the products after separation by HPAEC chromatography, using the on-line Radiomatic 150TR scintillation rate analysis apparatus (Packard).
Except where otherwise mentioned, the assays for the enzyme characterization studies were performed as above with 0.25 μg of purified transferase.
The samples from the transferase tests were analyzed on a Dionex CarboPac PA1 analytical column (4×250 mm) (with a PA1 reference column) on a Dionex HPAEC-type system with pulsed electrochemical detection (PED-2 cell), fitted with a combination of pH-Ag/AgCl reference electrodes and using a potential of 0.4 V for the first 0.5 s of detection. The oligosaccharides were eluted under the following conditions: flow rate 1 ml/min, buffer A: 50 mM NaOH; buffer B: 500 mM sodium acetate in 50 mM NaOH; gradient 0 to 2 min, 98% A 2% B (isocratic), 2 to 15 min 75% A 25% B (linear), 15 to 45 min 60% A 40% B (linear).
In order to determine the relative reaction rate of the enzymes with laminarioligosaccharides of variable sizes, the 49 kDa enzyme (0.25 μg) was incubated with 8 mM of rG10 to rG15 marked with ^3H and the rate of formation of the marked products was measured. The rate with rG10 (328 nmol.min^−1) was approximately equal to 50% of that with the larger substrates and there was no significant difference between the reaction rates for rG11 to rG15 (648±46 nmol.min^−1.mg protein^−1).
The relative rate of the reaction with the acceptors was determined by using 2 mM of rG11 as donor and 32 mM of reduced acceptor marked with ^3H and measuring the formation of marked transferase product (FIG. 4). Under these conditions, the reaction with rG11 used as acceptor was negligible. The reaction rate increased with an increase in chain length, showing that the 49 kDa enzyme prefers the larger laminarioligosaccharide acceptors.
By using rG11 as substrate, it was impossible to calculate an apparent Km corresponding to the two steps of the reaction. In order to determine a Km for the donor site, we used an acceptor which was not a donor. We used [^3H]-rG7 (1×10^6 cpm) as acceptor at a high concentration (64 mM) with different concentrations of rG11 kept below 8 mM. Under these conditions, the reaction took place with rG11 as donor and rG7 was used rather than rG11 as acceptor, as determined by the absence of formation of the transferase product rG16. The initial reaction rate was determined by measuring the appearance of marked rG12.

49 kDa enzyme = biological target: T2, 49 kDa enzyme (Aspergillus fumigatus, UniProt B0XT72); experiment: Optimum pH and storage stability of the 49 kDa enzyme; assay type: biochemical
T2 construct: from tissue; host or cells: Aspergillus fumigatus CBS 144-89 mycelium, cell wall autolysate; four ion-exchange steps and one gel filtration
T2 sequence (B0XT72 whole entry, looked up): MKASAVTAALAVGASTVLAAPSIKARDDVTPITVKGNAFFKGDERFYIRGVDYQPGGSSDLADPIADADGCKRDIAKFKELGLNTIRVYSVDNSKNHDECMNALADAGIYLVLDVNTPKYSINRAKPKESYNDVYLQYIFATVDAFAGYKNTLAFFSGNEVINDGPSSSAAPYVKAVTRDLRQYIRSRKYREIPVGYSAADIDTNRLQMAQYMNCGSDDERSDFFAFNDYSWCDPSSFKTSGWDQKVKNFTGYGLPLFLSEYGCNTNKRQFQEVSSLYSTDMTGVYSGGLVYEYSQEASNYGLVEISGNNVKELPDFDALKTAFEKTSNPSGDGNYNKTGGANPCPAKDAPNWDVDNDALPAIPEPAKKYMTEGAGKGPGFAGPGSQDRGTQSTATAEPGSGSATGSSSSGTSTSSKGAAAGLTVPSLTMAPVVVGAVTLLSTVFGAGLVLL
Description: FIG. 6 illustrates the effect of pH on the transfer rate. The 49 kDa transferase was incubated with 8 μM of [^3H]-rG11 (1×10^6 cpm). The reaction rates were determined by measuring the quantity of marking formed in the form of the product rG16. The buffers used were: ●, sodium citrate/citric acid; ∘, imidazole/citric acid; x, sodium acetate/acetic acid; [formula], Tris/glycine; ▴, phosphate/NaOH; □, Tris/acetic acid; Δ, glycine/HCl.
The 49 kDa enzyme was tested at different pH values, the storage stability was verified and the activity of the N-glycosylated enzyme was tested. The enzyme was active over a wide range of acid pH, showing an activity of more than 50% of its maximum between pH 2.5 and 6.0.

## gentiooligosaccharides
[1]
  activity of the transferase towards the substance as substrate/donor: no activity

## maltoheptaose
[1]
  activity of the transferase towards the substance as substrate/donor: no activity

## chitohexaose
[1]
  activity of the transferase towards the substance as substrate/donor: no activity

## reduced laminarihexose [[^3H]-rG6]
[1]; 2 mM rG11 as donor, 32 mM ^3H-marked reduced acceptor, initial rate of formation of transfer product
  Transfer rate: 387 nmol.min^−1.mg protein^−1

## OC[C@H]1O[C@@H](O[C@H]2[C@H](O)[C@@H](O)[C@H](O[C@H]3[C@H](O)[C@@H](O)[C@H](O[C@H]4[C@H](O)[C@@H](O)[C@H](O[C@H]5[C@H](O)[C@@H](O)C(O)O[C@@H]5CO)O[C@@H]4CO)O[C@@H]3CO)O[C@@H]2CO)[C@H](O)[C@@H](O)[C@@H]1O (stereo partly shown) [ceflopentaose]
[1]
  activity of the transferase towards the substance as substrate/donor: no activity

B1: 49 kDa enzyme: β-(1-3)-glucanosyltransferase purified from cell wall autolysate of A. fumigatus, SEQ ID NO 2/3 (protein, listed as Aspergillus fumigatus)
chain 1: MKASAVTAALAVGASTVLAAPSIKARDDVTPITVKGNAFFKGDERFYIRGVDYQPGGSSDLADPIADADGCKRDIAKFKELGLNTIRVYSVDNSKNHDECMNTLADAGIYLVLDVNTPKYSINRAKPKESYNDVYLQYIFATVDAFAGYKNTLAFFSGNEVINDGPSSSAAPYVKAVTRDLRQYIRSRKYREIPVGYSAADIDTNRLQMAQYMNCGSDDERSDFFAFNDYSWCDPSSFKTSGWDQKVKNFTGYGLPLFLSEYGCNTNKRQFQEVSSLYSTDMTGVYSGGLVYEYSQEASNYGLVEISGNNVKELPDFDALKTAFEKTSNPSGDGNYNKTGGANPCPAKDAPNWDVDNDALPAIPEPAKKYMTEGAGKGPGFAGPGSQDRGTQSTATAEPGSGSATGSSSSGTSTSSKGAAAGLTVPSLTMAPVVVGAVTLLSTVFGAGLVLL
chain 2: DDVTPITVKGNAFFKGDERFYIRGVDYQPGGSSDLADPIADADGCKRDIAKFKELGLNTIRVYSVDNSKNHDECMNTLADAGIYLVLDVNTPKYSINRAKPKESYNDVYLQYIFATVDAFAGYKNTLAFFSGNEVINDGPSSSAAPYVKAVTRDLRQYIRSRKYREIPVGYSAADIDTNRLQMAQYMNCGSDDERSDFFAFNDYSWCDPSSFKTSGWDQKVKNFTGYGLPLFLSEYGCNTNKRQFQEVSSLYSTDMTGVYSGGLVYEYSQEASNYGLVEISGNNVKELPDFDALKTAFEKTSNPSGDGNYNKTGGANPCPAKDAPNWDVDNDALPAIPEPAKKYMTEGAGKGPGFAGPGSQDRGTQSTATAEPGSGSATGSSSSGTSTSSKGAAAGLTVPSLTMAPVVVGAVTLLSTVFGAGLVLL
49 kDa enzyme; 4° C. in 10 mM citrate buffer pH 5.0 for several weeks, speed-vac dried and re-suspended, or −20° C.
  storage stability: without significant loss of activity
49 kDa enzyme; citrate buffer
  pH optimum: about 5.0
